Assay results taken from PubChem BioAssay AID330 (DTP/NCI, 2004).
Several values for one entry are separate records, joined by “and”; a condition that tells them apart may be missing. Equal entries are not always repeated. Toxic doses and inconclusive results are not listed. Rule for the calls: active = survival T/C of 150% or more; inactive = T/C below 125% in these data. Peptide text beside a SMILES is read from it. * marks the point of attachment. Trt = c1ccc(C(c2ccccc2)(c2ccccc2)*)cc1; Benzhydryl = c1ccc(C(c2ccccc2)*)cc1; Cbz = O=C(OCc1ccccc1)*

Test system: P388 leukemia ip, CD2F1 mice, survival T/C
Assay: NCI In Vivo Anticancer Drug Screen. Data for tumor model P388 Leukemia (intraperitoneal) in CD2F1 (CDF1) mice
Settings: endpoint: median survival time, higher = longer survival
In short: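 Mice carrying the transplanted tumor received test compound or vehicle. Survival was recorded in each group, and the value is the treated-group measurement divided by that of the vehicle-treated control group.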

[1] = dose: 50.0 mg/kg/injection, schedule: Q01DX005 (ip), vehicle: saline with Tween-80
[2] = dose: 100.0 mg/kg/injection, schedule: Q01DX005 (ip), vehicle: saline with Tween-80
[3] = dose: 200.0 mg/kg/injection, schedule: Q01DX005 (ip), vehicle: saline with Tween-80
[4] = dose: 50.0 mg/kg/injection, schedule: Q01DX009 (ip), vehicle: Klucel (hydroxypropylcellulose) (HPC)
[5] = dose: 100.0 mg/kg/injection, schedule: Q01DX009 (ip), vehicle: Klucel (hydroxypropylcellulose) (HPC)
[6] = dose: 60.0 mg/kg/injection, schedule: Q01DX005 (ip), vehicle: saline with Tween-80
[7] = dose: 120.0 mg/kg/injection, schedule: Q01DX005 (ip), vehicle: saline with Tween-80
[8] = dose: 240.0 mg/kg/injection, schedule: Q01DX005 (ip), vehicle: saline with Tween-80
[9] = dose: 12.5 mg/kg/injection, schedule: Q01DX009 (ip), vehicle: other
[10] = dose: 25.0 mg/kg/injection, schedule: Q01DX009 (ip), vehicle: other
[11] = dose: 50.0 mg/kg/injection, schedule: Q01DX009 (ip), vehicle: other
[12] = dose: 100.0 mg/kg/injection, schedule: Q01DX009 (ip), vehicle: other
[13] = dose: 100.0 mg/kg/injection, schedule: Q01DX009 (ip), vehicle: saline with Tween-80
[14] = dose: 200.0 mg/kg/injection, schedule: Q01DX009 (ip), vehicle: saline with Tween-80
[15] = dose: 50.0 mg/kg/injection, schedule: Q01DX009 (ip), vehicle: saline
[16] = dose: 100.0 mg/kg/injection, schedule: Q01DX009 (ip), vehicle: saline
[17] = dose: 200.0 mg/kg/injection, schedule: Q01DX009 (ip), vehicle: saline
[18] = dose: 50.0 mg/kg/injection, schedule: Q01DX005 (ip), vehicle: Klucel (hydroxypropylcellulose) (HPC)
[19] = dose: 100.0 mg/kg/injection, schedule: Q01DX005 (ip), vehicle: Klucel (hydroxypropylcellulose) (HPC)
[20] = dose: 200.0 mg/kg/injection, schedule: Q01DX005 (ip), vehicle: Klucel (hydroxypropylcellulose) (HPC)

Measured: T/C

COC(=O)C(Cc1ccccc1)NC(=O)C(Cc1ccccc1)NC(=O)CNC(=O)C(CSC(c1ccccc1)c1ccccc1)NC(=O)C(CSC(c1ccccc1)(c1ccccc1)c1ccccc1)NC(=O)OCc1ccccc1 (stereo not given) (Cbz-C(Trt)C(Benzhydryl)GFF-OMe; configuration not given here)
inactive: dose: 100.0 mg/kg/injection, schedule: Q04DX002 (ip), vehicle: Klucel (hydroxypropylcellulose) (HPC) 88 % of control | dose: 200.0 mg/kg/injection, schedule: Q04DX002 (ip), vehicle: Klucel (hydroxypropylcellulose) (HPC) 98 % of control | dose: 400.0 mg/kg/injection, schedule: Q04DX002 (ip), vehicle: Klucel (hydroxypropylcellulose) (HPC) 98 % of control

CN(CO)N=Nc1ccc(C(F)(F)F)cc1
inactive: [1] 96 % of control | [2] 113 % of control | [3] 113 % of control

C[C@]12C=CC(=O)C=C1CC[C@@H]1[C@@H]2[C@@H](O)C[C@@]2(C)[C@H]1CC[C@]2(O)C(=O)CF
inactive: dose: 6.25 mg/kg/injection, schedule: Q01DX009 (ip), vehicle: suspension in saline 100 % of control | dose: 12.5 mg/kg/injection, schedule: Q01DX009 (ip), vehicle: suspension in saline 93 % of control | dose: 25.0 mg/kg/injection, schedule: Q01DX009 (ip), vehicle: suspension in saline 102 % of control | dose: 50.0 mg/kg/injection, schedule: Q01DX009 (ip), vehicle: suspension in saline 96 % of control

c1ccc2c3c(ccc2c1)Oc1ccc2ccccc2c1C3
inactive: dose: 100.0 mg/kg/injection, schedule: Q01DX001 (ip), vehicle: Klucel (hydroxypropylcellulose) (HPC) 102 % of control | dose: 200.0 mg/kg/injection, schedule: Q01DX001 (ip), vehicle: Klucel (hydroxypropylcellulose) (HPC) 97 % of control | dose: 400.0 mg/kg/injection, schedule: Q01DX001 (ip), vehicle: Klucel (hydroxypropylcellulose) (HPC) 100 % of control

CCCCCCCCCCCCCCCN1CCS(=O)(=O)CC1
inactive: [4] 98 % of control | [5] 94 % of control | dose: 200.0 mg/kg/injection, schedule: Q01DX009 (ip), vehicle: Klucel (hydroxypropylcellulose) (HPC) 94 % of control

CC(=O)Nc1ccccc1OC(=O)NC(C)(C)C
inactive: [6] 97 % of control | [7] 100 % of control | [8] 90 % of control

O=C(NC(CCS(=O)(=O)NO)C(=O)OCc1ccccc1)OCc1ccccc1 (stereo not given)
inactive: [9] 100 % of control | [10] 95 % of control | [11] 109 % of control | [12] 95 % of control | dose: 200.0 mg/kg/injection, schedule: Q01DX009 (ip), vehicle: other 92 % of control

CCOC(=O)CCC1(C)Sc2ccccc2N1C (stereo not given)
inactive: [6] 107 % of control | [7] 110 % of control | [8] 107 % of control

CC1=CC2N(C=C1)C(c1ccc(Cl)cc1)=NON2c1cc(C)ccn1 (stereo not given)
inactive: [1] 92 % of control | [2] 86 % of control and 94 % of control | [7] 87 % of control | [3] 100 % of control | [8] 93 % of control

CC(=O)Nc1ccc(O)c(O)c1
inactive: dose: 50.0 mg/kg/injection, schedule: Q01DX009 (ip), vehicle: saline with Tween-80 116 % of control and 119 % of control | [13] 120 % of control | [14] 119 % of control

O=C(/C=C/c1c[nH]c2ccccc12)c1ccc([N+](=O)[O-])cc1
inactive: dose: 15.0 mg/kg/injection, schedule: Q01DX005 (ip), vehicle: saline with Tween-80 100 % of control | dose: 30.0 mg/kg/injection, schedule: Q01DX005 (ip), vehicle: saline with Tween-80 86 % of control | [6] 97 % of control

Cc1cc(Cl)c2ccc(Cl)c(C)c2n1
inactive: [1] 102 % of control | [2] 104 % of control | [3] 100 % of control

CN1CCc2cc3c(cc2C1O)OCO3 (stereo not given)
inactive: [1] 100 % of control | [2] 110 % of control

O=C(Nc1ccc(C2=NCCN2)cc1)c1ccc(C(=O)Nc2ccc(C3=NCCN3)cc2)c(NC(=O)c2ccc(C(=O)Nc3cc(C(=O)Nc4ccc(C5=NCCN5)cc4)ccc3C(=O)Nc3ccc(C4=NCCN4)cc3)cc2)c1
inactive: dose: 25.0 mg/kg/injection, schedule: Q01DX010 (ip), vehicle: saline 90 % of control | dose: 50.0 mg/kg/injection, schedule: Q01DX010 (ip), vehicle: saline 86 % of control | dose: 100.0 mg/kg/injection, schedule: Q01DX010 (ip), vehicle: saline 100 % of control | dose: 200.0 mg/kg/injection, schedule: Q01DX010 (ip), vehicle: saline 100 % of control

N#CC(OC(=O)c1ccccc1)C(OC(=O)c1ccccc1)C(OC(=O)c1ccccc1)C(COC(=O)c1ccccc1)OC(=O)c1ccccc1 (stereo not given)
inactive: dose: 6.25 mg/kg/injection, schedule: Q01DX005 (ip), vehicle: saline with Tween-80 97 % of control | dose: 12.5 mg/kg/injection, schedule: Q01DX005 (ip), vehicle: saline with Tween-80 95 % of control | dose: 25.0 mg/kg/injection, schedule: Q01DX005 (ip), vehicle: saline with Tween-80 86 % of control

CC(C)(C)C(=O)Nc1ccc2c(c1)C(=O)c1ccccc1C2=O
inactive: [1] 100 % of control | [2] 87 % of control | [3] 89 % of control

CC(N)S(=O)(=O)O (stereo not given)
inactive: [15] 104 % of control | [16] 98 % of control | [17] 104 % of control | dose: 400.0 mg/kg/injection, schedule: Q01DX009 (ip), vehicle: saline 88 % of control

CCN(CC)CCNc1ccc(C)c2sc3cccc(O)c3c(=O)c12
active: [5] 181 % of control

CC(C)C12OC1CC13OC1C1OC1C1OC132 (stereo not given)
inactive: dose: 100.0 mg/kg/injection, schedule: Q04DX002 (ip), vehicle: saline with Tween-80 101 % of control | dose: 200.0 mg/kg/injection, schedule: Q04DX002 (ip), vehicle: saline with Tween-80 99 % of control | dose: 400.0 mg/kg/injection, schedule: Q04DX002 (ip), vehicle: saline with Tween-80 94 % of control

COc1cc(C)c2[nH]c3c(C)c(Cl)ccc3c(=O)c2c1
inactive: dose: 50.0 mg/kg/injection, schedule: Q01DX005 (ip), vehicle: Klucel + Tween-80 97 % of control | dose: 100.0 mg/kg/injection, schedule: Q01DX005 (ip), vehicle: Klucel + Tween-80 93 % of control | dose: 200.0 mg/kg/injection, schedule: Q01DX005 (ip), vehicle: Klucel + Tween-80 96 % of control

O=[N+]([O-])c1cc2c(ccc3cc(Br)ccc32)o1
inactive: [18] 87 % of control | [19] 92 % of control | [20] 92 % of control

COc1cc(CC(CC(=O)O)C(=O)O)cc(OC)c1OC (stereo not given)
inactive: [18] 97 % of control | [19] 88 % of control | [20] 97 % of control

COc1cc2ccc3c(c2cc1OC)CN1CCCC1C3 (stereo not given)
inactive: dose: 6.25 mg/kg/injection, schedule: Q01DX005 (ip), vehicle: Klucel (hydroxypropylcellulose) (HPC) 100 % of control | dose: 12.5 mg/kg/injection, schedule: Q01DX005 (ip), vehicle: Klucel (hydroxypropylcellulose) (HPC) 96 % of control | dose: 25.0 mg/kg/injection, schedule: Q01DX005 (ip), vehicle: Klucel (hydroxypropylcellulose) (HPC) 100 % of control | [18] 105 % of control

O=C1C(c2ccccc2)=C(c2ccccc2)/C1=C\c1ccc(Cl)cc1Cl
inactive: [4] 87 % of control | [5] 87 % of control

Cc1cnc(Sc2ncccc2[N+](=O)[O-])nc1
inactive: [15] 109 % of control | [16] 109 % of control | [17] 116 % of control

CCOC(=O)CC(=O)N(CC)CC
inactive: [13] 104 % of control | [14] 100 % of control | dose: 400.0 mg/kg/injection, schedule: Q01DX009 (ip), vehicle: saline with Tween-80 95 % of control

CC1c2ccoc2CC2C1C(O)C(O)C1C(C)(C)CCCC21C (stereo not given)
inactive: dose: 100.0 mg/kg/injection, schedule: Q04DX002 (ip), vehicle: suspension in saline 106 % of control | dose: 200.0 mg/kg/injection, schedule: Q04DX002 (ip), vehicle: suspension in saline 106 % of control | dose: 400.0 mg/kg/injection, schedule: Q04DX002 (ip), vehicle: suspension in saline 98 % of control

CCCCCCCC(=O)NC1CC(O[C@H]2C[C@](O)(C(=O)CO)Cc3c(O)c4c(c(O)c32)C(=O)c2c(OC)cccc2C4=O)OC(C)C1O (stereo not given in full)
active: dose: 6.25 mg/kg/injection, schedule: Q01DX009 (ip), vehicle: other 153 % of control | [9] 177 % of control | [10] 184 % of control | [11] 155 % of control
inactive: [12] 86 % of control
